# Source: patent publication US11091421B2, “Benzene fused heterocyclic derivative and pharmaceutical composition comprising the same” (TAIWANJ PHARMACEUTICALS CO., LTD., priority 2017, dated 2021)
# Target: autotaxin (Homo sapiens, UniProt Q13822)
# Test: Autotaxin inhibitor screening assay (phosphodiesterase activity, p-nitrophenol cleaved from bis-(p-nitrophenyl) phosphate, absorbance 410 nm)
# Format: biochemical
# Conditions: compound at 30 μM; BNPP 3 mM, pH 9.0, 37° C., 30 minutes
# Method: As described above, the compounds in the present disclosure have the effect of inhibiting the activity of autotaxin, and can be used as autotaxin inhibitors. One method for inhibiting activity of autotaxin in environment is administering to the environment an effective amount of the compound of Formula (I). Please refer to the following experiment, the phosphodiesterase activity of autotaxin was measured using the p-nitrophenol that is a yellow product cleaved by autotaxin from the bis-(p-nitrophenyl) phosphate. Compound samples (10 μl) were incubated with autotaxin (10 μl) in a final volume of 200 μl assay buffer (5 mM CaCl2, 50 mM Tris-HCl, pH 9.0) containing bis-(p-nitrophenyl) phosphate (BNPP) at a final concentration of 3 mM at 37° C. After 30 minutes, absorbance at 410 nm of the reacted solution was measured. The percent inhibition for each test article (TA) (compound) was determined using the following equation. % Inhibition=(O.D.vehicle−O.D.TA)/O.D.vehicle×100
row,Structure (SMILES),Inhibition
1,O=C1c2cc(O)ccc2CC1CC1CCN(C(=O)OCc2cc(Cl)cc(Cl)c2)CC1 (centres unmarked) [Compound 119],B (50%~80% inhibition at 30 μM)

# Same assay, conditions: pH 9
row,Structure (SMILES),inhibition at 30 µM
1,O=C(Nc1ccc2c(c1)CC(Cc1ccc(C(=O)O)cc1)C2)OCc1ccccc1 (centres unmarked) [Compound 110],50 to 80%

# Same assay, conditions: pH 9, compound at 30 μM; BNPP 3 mM, pH 9.0, 37° C., 30 minutes; read-out: Inhibition
row,Structure (SMILES),inhibition at 30 µM
1,O=C(O)c1ccc(/C=C2\Cc3ccc(OCc4ccc(F)c(F)c4)cc3C2=O)cc1 [Compound 8],< 50%
2,O=C(O)c1ccc(COc2ccc3c(c2)C/C(=C\c2ccc(-c4ccc(F)cc4)cc2)C3=O)cc1 [Compound 12],> 80%
3,O=C(O)c1ccc(COc2ccc3c(c2)C/C(=C\c2ccc(OCCOc4ccc(F)cc4F)cc2)C3=O)cc1 [Compound 16],50 to 80%
4,O=C(O)c1ccc(CC2CCc3c(OCc4cc(F)c(F)cc4F)cccc3C2=O)cc1 (centres unmarked) [Compound 47],50 to 80%
5,O=C(O)c1ccc(COc2ccc3c(c2)C/C(=C\c2cc(F)c(F)c(F)c2)C3=O)cc1 [Compound 18],50 to 80%
6,O=C1/C(=C/c2ccc(C(F)(F)F)cc2)Cc2ccc(OCc3ccc(F)c(F)c3)cc21 [Compound 6],< 50%
7,O=C(NCc1cc(F)ccc1F)c1ccc(CC2CCc3cc(O)ccc3C2=O)cc1 (centres unmarked) [Compound 56],< 50%
8,"O=C(O)c1ccc(COc2ccc3c(c2)C/C(=C\c2cc(Cl)cc(Cl)c2)C3=O)cc1 [Compound 20, (E)-4-(((2-(3,5-dichlorobenzylidene)-1-oxo-2,3-dihydro-1H-inden-5-yl)oxy)methyl)benzoic acid]",> 80%
9,O=C(O)c1ccc(/C=C2\Cc3cc(OCc4cc(F)c(F)cc4F)ccc3C2=O)cc1 [Compound 10],< 50%
10,O=C(O)c1ccc(COc2ccc3c(c2)C/C(=C\c2ccc(OCc4cc(F)c(F)cc4F)c(F)c2)C3=O)cc1 [Compound 15],50 to 80%
11,O=C(NCCO)c1ccc(CC2CCc3cc(OCc4cc(F)c(F)cc4F)ccc3C2=O)cc1 (centres unmarked) [Compound 45],50 to 80%
12,O=C(O)c1ccc(COc2ccc3c(c2)C/C(=C\c2ccc(Cl)c(F)c2)C3=O)cc1 [Compound 13],> 80%
13,O=C(NCc1cc(F)ccc1F)c1ccc(/C=C2\Cc3cc(O)ccc3C2=O)cc1 [Compound 33],50 to 80%
14,O=C(OCc1cc(F)ccc1F)c1ccc(CC2CCc3cc(OCc4cc(F)ccc4F)ccc3C2=O)cc1 (centres unmarked) [Compound 62],> 80%
15,O=C(OCc1cc(F)c(F)cc1F)c1ccc(CC2Cc3ccc(O)cc3C2=O)cc1 (centres unmarked) [Compound 34],50 to 80%
16,O=C(O)c1ccc(COc2ccc3c(c2)C/C(=C\CCc2cc(Cl)cc(Cl)c2)C3=O)cc1 [Compound 17],> 80%
17,O=C(O)c1ccc(COc2ccc3c(c2)C/C(=C\c2ccc(Cl)cc2Cl)C3=O)cc1 [Compound 19],> 80%
18,O=C(O)c1ccc(COc2ccc3c(c2)C/C(=C\c2cc(F)c(F)cc2F)C3=O)cc1 [Compound 21],> 80%
19,O=C1c2ccc(OCCc3cc(F)ccc3F)cc2CCC1Cc1ccc(O)c(O)c1 (centres unmarked) [Compound 53],> 80%
20,CN(Cc1cc(F)c(F)cc1F)C(=O)c1ccc(CC2CCc3cc(O)ccc3C2=O)cc1 (centres unmarked) [Compound 61],50 to 80%
21,O=C(Nc1ccc2c(c1)C(=O)N(Cc1ccc(C(F)(F)F)cc1)C2=O)OCc1ccccc1 [Compound 38],< 50%
22,O=C(OCc1cc(F)c(F)cc1F)c1ccc(CC2CCc3cc(O)ccc3C2=O)cc1 (centres unmarked) [Compound 57],> 80%
23,O=C(O)c1ccc(/C=C2\CCc3cc(OCCc4ccc(F)cc4)ccc3C2=O)cc1 [Compound 50],50 to 80%
24,O=C(O)c1cc(CC2CCc3cc(OCCc4cc(F)ccc4F)ccc3C2=O)ccc1O (centres unmarked) [Compound 52],50 to 80%
25,O=C(Nc1ccc(CC2CCc3cc(O)ccc3C2=O)cc1)OCc1ccc(Cl)c(Cl)c1 (centres unmarked) [Compound 68],> 80%
26,O=C(O)c1ccc(COc2ccc3c(c2)C/C(=C\c2ccc(Cl)cc2)C3=O)cc1 [Compound 5],> 80%
27,O=C(O)c1cccc(/C=C2\Cc3ccc(OCc4ccc(F)c(F)c4)cc3C2=O)c1 [Compound 9],< 50%
28,O=C(O)c1ccc(COc2ccc3c(c2)C/C(=C\c2ccc(OCc4cc(F)c(F)cc4F)cc2)C3=O)cc1 [Compound 14],> 80%
29,O=C(NCc1ccc(F)c(F)c1)c1ccc(CC2CCc3cc(O)ccc3C2=O)cc1 (centres unmarked) [Compound 59],50 to 80%

# Next, values leading:
row,inhibition at 30 µM,Structure (SMILES)
1,< 50%,O=C(Nc1ccc(CC2CCc3cc(O)ccc3C2=O)cc1)Nc1cc(Cl)cc(Cl)c1 (centres unmarked) [Compound 118]
2,50 to 80%,COC(=O)c1ccc(COc2ccc3c(c2)O/C(=C\c2ccc(F)c(F)c2)C3=O)cc1 [Compound 89]
3,50 to 80%,O=C(CCc1ccc(CC2CCc3cc(O)ccc3C2=O)cc1)c1ccc(F)c(F)c1 (centres unmarked) [Compound 81]
4,> 80%,O=C(O)Cc1ccc(COc2ccc3c(c2)C/C(=C\c2cc(Cl)cc(Cl)c2)C3=O)cc1 [Compound 130]
5,50 to 80%,O=C(Nc1ccc(CC2CCc3cc(O)ccc3C2=O)cc1)OCc1cc(F)c(F)cc1F (centres unmarked) [Compound 71]
6,> 80%,CNC(=O)c1ccc(COc2ccc3c(c2)C/C(=C\c2cc(Cl)cc(Cl)c2)C3=O)cc1 [Compound 120]
7,< 50%,COC(=O)c1ccc(COc2ccc3c(c2)C/C(=C\c2cc(Cl)cc(Cl)c2)C3=O)cc1 [Compound 132]
8,50 to 80%,O=C(NO)c1ccc(COc2ccc3c(c2)C/C(=C\c2cc(Cl)cc(Cl)c2)C3=O)cc1 [Compound 128]
9,< 50%,CS(=O)(=O)c1ccc(COc2ccc3c(c2)C/C(=C\c2cc(Cl)cc(Cl)c2)C3=O)cc1 [Compound 122]
10,50 to 80%,O=C(Nc1ccc(F)c(F)c1)c1ccc2c(c1)C(=O)N(Cc1cccc(C(F)(F)F)c1)C2=O [Compound 96]
11,< 50%,CS(=O)(=O)Cc1ccc(COc2ccc3c(c2)C/C(=C\c2cc(Cl)cc(Cl)c2)C3=O)cc1 [Compound 124]
12,< 50%,O=C1c2cc(O)ccc2CC1CC1CCN(C(=O)OCc2cc(Cl)cc(Cl)c2)CC1 (centres unmarked) [Compound 117]
13,50 to 80%,O=C1c2ccc(O)cc2CCC1Cc1ccc(OCCOc2ccc(F)cc2F)cc1 (centres unmarked) [Compound 102]
14,50 to 80%,CONC(=O)c1ccc(COc2ccc3c(c2)C/C(=C\c2cc(Cl)cc(Cl)c2)C3=O)cc1 [Compound 127]
15,< 50%,CNS(=O)(=O)c1ccc(COc2ccc3c(c2)C/C(=C\c2cc(Cl)cc(Cl)c2)C3=O)cc1 [Compound 123]
16,50 to 80%,O=C1/C(=C/c2ccc(C(F)(F)F)cc2)CCc2cc(OCc3ccc(F)c(F)c3)ccc21 [Compound 92]
17,< 50%,O=C1/C(=C/c2ccc(OCc3cc(F)c(F)cc3F)cc2)CCc2cc(O)ccc21 [Compound 99]
18,> 80%,CS(=O)(=O)NC(=O)c1ccc(COc2ccc3c(c2)C/C(=C\c2cc(Cl)cc(Cl)c2)C3=O)cc1 [Compound 125]
19,< 50%,CS(=O)(=O)c1ccc(COc2ccc3c(c2)C/C(=C\c2ccc(F)c(Cl)c2)C3=O)cc1 [Compound 126]
20,> 80%,O=C(Nc1ccc(CC2CCc3cc(O)ccc3C2=O)cc1)OCc1cc(Cl)cc(Cl)c1 (centres unmarked) [Compound 70]
21,> 80%,O=C(O)COc1ccc(COc2ccc3c(c2)C/C(=C\c2cc(Cl)cc(Cl)c2)C3=O)cc1 [Compound 131]
22,50 to 80%,O=C(O)c1ccc(CN2CCc3cc(OCc4cc(F)c(F)cc4F)ccc3C2=O)cc1 [Compound 77]
